Data: patent US20260201476A1, “METHODS FOR IDENTIFYING RESISTANCE OR RESPONSE TO VENETOCLAX/HYPOMETHYLATING AGENT/ANTI-CD70 AGENT TREATMENT FOR ACUTE MYELOID LEUKEMIA” (The Regents of the University of Colorado, A Body Corporate, priority 2022, published 2026)
Where two headings read alike, the source gives them in different places.

Experiments:
newly diagnosed AML = settings: 1118 newly diagnosed AML patients, cited from earlier work
AML [1] = assay: Survival probability of AML subjects by biomarker after venetoclax/azacitidine with or without cusatuzumab (Example 3); assay type: in vivo, human
From the text: The following is a non-limiting example of analysis showing the response of AML subjects to treatment with a combination of venetoclax and azacitidine, or a combination of venetoclax, azacitidine and cusatuzumab, based on various different biomarkers.
FIGS. 12-15 are a series of graphs showing the survival probability of AML subjects after receiving a combination of venetoclax, azacitidine and cusatuzumab. The left panel of each of FIGS. 12-15 are all subjects for which data was available, and the right panel is a subset of the data presented in the left panel minus the subjects who received at least one stem cell transplant.
FIGS. 16-18 are a series of graphs showing the survival probability of AML subjects after receiving either a combination of venetoclax and azacitidine (top panels) or a combination of venetoclax, azacitidine and cusatuzumab (bottom panels).

AML [2] = settings: older previously untreated AML patients; venetoclax in combination with backbone chemotherapy treatments; cited from earlier work

For `Nc1ccn([C@@H]2O[C@H](CO)[C@@H](O)[C@@H]2O)c(=O)n1` [cytarabine, 4-amino-1-[(2R,3S,4S,5R)-3,4-dihydroxy-5-(hydroxymethyl)oxolan-2-yl] pyrimidin-2-one], the “5-year OS” value (newly diagnosed AML; ELN 2022 adverse risk group) is listed as 15%, the “5-year OS” value (newly diagnosed AML; ELN 2022 favorable risk group) is listed as 55% and the “5-year OS” value (newly diagnosed AML; ELN 2022 intermediate risk group) is listed as 34%.
With “cusatuzumab: an anti-CD70 monoclonal antibody currently being tested in clinical trials for the treatment of AML” the “effect of adding cusatuzumab to venetoclax and azacitidine on survival” value (shortened to “effect of adding cusatuzumab”) (AML [1]; CD7+ AML (FIG. 16)) was “overcome the poor prognostic significant of CD7+ AML”, the “effect of adding cusatuzumab” value (AML [1]; FIG. 18 (PTPN11), text prints mutated KRAS) was “overcome the poor prognostic significant of mutated KRAS” and the “effect of adding cusatuzumab” value (AML [1]; mutated KRAS (FIG. 17)) was “overcome the poor prognostic significant of mutated KRAS”.
For `CC1(C)CCC(CN2CCN(c3ccc(C(=O)NS(=O)(=O)c4ccc(NCC5CCOCC5)c([N+](=O)[O-])c4)c(Oc4cnc5[nH]ccc5c4)c3)CC2)=C(c2ccc(Cl)cc2)C1` [venetoclax, 4-(4-{[2-(4-Chlorophenyl)-4,4-dimethyl-1-cyclohexen-1-yl]methyl}-1-piperazinyl)-N-({3-nitro-4-[(tetrahydro-2H-pyran-4-ylmethyl)amino]phenyl}sulfonyl)-2-(1H-pyrrolo[2,3-b]pyridin-5-yloxy)benzamide], the responses (AML [2]) is given as 60-70%.
